In PubChem BioAssay AID1963430 (Molecular Pharmacology Branch, DTP, NCI, 2024):

Test system: 521955-158-R2-J5-PDC complex spheroid growth, % test/control
Assay: Anticancer human tumor 521955-158-R2-J5-PDC patient-derived pancreatic carcinoma cell line growth inhibition [Asc]
Conditions: for IC50: curve of first compound; for viability, T/C: stronger effect = lower value
Summary of the method: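 Tumor cells were grown as multicellular spheroids with stromal HUVEC and mesenchymal stem cells and treated singly or in combination. Concentrations fell in half-log steps from the clinical Cmax, or from 10 microM where none was known.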

[1] = second compound 0.01 µM, first compound 0.0316 µM
[2] = second compound 0.01 µM, first compound 0.1 µM
[3] = second compound 0.01 µM, first compound 0.316 µM
[4] = second compound 0.01 µM, first compound 1 µM
[5] = second compound 0.01 µM, first compound 3.16 µM
[6] = second compound 0.01 µM, first compound 10 µM
[7] = second compound 0.0316 µM, first compound 0.0316 µM
[8] = second compound 0.0316 µM, first compound 0.1 µM
[9] = second compound 0.0316 µM, first compound 0.316 µM
[10] = second compound 0.0316 µM, first compound 1 µM
[11] = second compound 0.0316 µM, first compound 3.16 µM
[12] = second compound 0.0316 µM, first compound 10 µM
[13] = second compound 0.1 µM, first compound 0.0316 µM
[14] = second compound 0.1 µM, first compound 0.1 µM
[15] = second compound 0.1 µM, first compound 0.316 µM
[16] = second compound 0.1 µM, first compound 1 µM
[17] = second compound 0.1 µM, first compound 3.16 µM
[18] = second compound 0.1 µM, first compound 10 µM
[19] = second compound 0.316 µM, first compound 0.0316 µM
[20] = second compound 0.316 µM, first compound 0.1 µM
[21] = second compound 0.316 µM, first compound 0.316 µM
[22] = second compound 0.316 µM, first compound 1 µM
[23] = second compound 0.316 µM, first compound 3.16 µM
[24] = second compound 0.316 µM, first compound 10 µM
[25] = second compound 1 µM, first compound 0.0316 µM
[26] = second compound 1 µM, first compound 0.1 µM
[27] = second compound 1 µM, first compound 0.316 µM
[28] = second compound 1 µM, first compound 1 µM
[29] = second compound 1 µM, first compound 3.16 µM
[30] = second compound 1 µM, first compound 10 µM
[31] = second compound 0.01 µM, first compound 0.00949 µM
[32] = second compound 0.01 µM, first compound 0.03 µM
[33] = second compound 0.01 µM, first compound 0.0949 µM
[34] = second compound 0.01 µM, first compound 0.3 µM
[35] = second compound 0.01 µM, first compound 0.949 µM
[36] = second compound 0.01 µM, first compound 3 µM
[37] = second compound 0.0316 µM, first compound 0.00949 µM
[38] = second compound 0.0316 µM, first compound 0.03 µM
[39] = second compound 0.0316 µM, first compound 0.0949 µM
[40] = second compound 0.0316 µM, first compound 0.3 µM
[41] = second compound 0.0316 µM, first compound 0.949 µM
[42] = second compound 0.0316 µM, first compound 3 µM
[43] = second compound 0.1 µM, first compound 0.00949 µM
[44] = second compound 0.1 µM, first compound 0.03 µM
[45] = second compound 0.1 µM, first compound 0.0949 µM
[46] = second compound 0.1 µM, first compound 0.3 µM
[47] = second compound 0.1 µM, first compound 0.949 µM
[48] = second compound 0.1 µM, first compound 3 µM
[49] = second compound 0.316 µM, first compound 0.00949 µM
[50] = second compound 0.316 µM, first compound 0.03 µM
[51] = second compound 0.316 µM, first compound 0.0949 µM
[52] = second compound 0.316 µM, first compound 0.3 µM
[53] = second compound 0.316 µM, first compound 0.949 µM
[54] = second compound 0.316 µM, first compound 3 µM
[55] = second compound 1 µM, first compound 0.00949 µM
[56] = second compound 1 µM, first compound 0.03 µM
[57] = second compound 1 µM, first compound 0.0949 µM
[58] = second compound 1 µM, first compound 0.3 µM
[59] = second compound 1 µM, first compound 0.949 µM
[60] = second compound 1 µM, first compound 3 µM
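Also: spheroids exposed to agents for 7 days before readout.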
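For viability, T/C in this document: 100% = DMSO vehicle control viability.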

## C#Cc1c(F)ccc2cc(O)cc(-c3ncc4c(N5CC6CCC(C5)N6)nc(OCC56CCCN5CC(F)C6)nc4c3F)c12 (stereo not given) + CNC(C)C(=O)NC1CN(S(=O)(=O)c2cccc(S(=O)(=O)N3CCC4CCC(C(=O)NC(c5ccccc5)c5ccccc5)N4C(=O)C(NC(=O)C(C)NC)C3)c2)CCC2CCC(C(=O)NC(c3ccccc3)c3ccccc3)N2C1=O
Second compound 0.01 µM
  IC50: < 0.0316 µM
Second compound 0.0316 µM
  IC50: < 0.0316 µM
Second compound 0.1 µM
  IC50: < 0.0316 µM
Second compound 0.316 µM
  IC50: < 0.0316 µM
Second compound 1 µM
  IC50: < 0.0316 µM
[1]
  viability, T/C: 22.8%
[2]
  viability, T/C: 22.5%
[3]
  viability, T/C: 20.6%
[4]
  viability, T/C: 16.3%
[5]
  viability, T/C: 19.2%
[6]
  viability, T/C: 18.2%
[7]
  viability, T/C: 20.3%
[8]
  viability, T/C: 25.8%
[9]
  viability, T/C: 19.4%
[10]
  viability, T/C: 13.4%
[11]
  viability, T/C: 17.7%
[12]
  viability, T/C: 19.9%
[13]
  viability, T/C: 22.1%
[14]
  viability, T/C: 16.6%
[15]
  viability, T/C: 21.6%
[16]
  viability, T/C: 15.7%
[17]
  viability, T/C: 18.3%
[18]
  viability, T/C: 17%
[19]
  viability, T/C: 20.8%
[20]
  viability, T/C: 17.1%
[21]
  viability, T/C: 18.1%
[22]
  viability, T/C: 22.8%
[23]
  viability, T/C: 17.3%
[24]
  viability, T/C: 13.9%
[25]
  viability, T/C: 21.6%
[26]
  viability, T/C: 18.7%
[27]
  viability, T/C: 27.5%
[28]
  viability, T/C: 26.6%
[29]
  viability, T/C: 19.7%
[30]
  viability, T/C: 16.8%

## C=C(F)C(=O)N1CCN(c2nc(OCC3CCCN3C)nc3c2CCN(c2cccc4cccc(Cl)c24)C3)CC1CC#N (stereo not given) + CNC(C)C(=O)NC1CN(S(=O)(=O)c2cccc(S(=O)(=O)N3CCC4CCC(C(=O)NC(c5ccccc5)c5ccccc5)N4C(=O)C(NC(=O)C(C)NC)C3)c2)CCC2CCC(C(=O)NC(c3ccccc3)c3ccccc3)N2C1=O
Second compound 0.01 µM
  IC50: 5.38 µM
Second compound 0.0316 µM
  IC50: 5.41 µM
Second compound 0.1 µM
  IC50: 5.72 µM
Second compound 0.316 µM
  IC50: 5.6 µM
Second compound 1 µM
  IC50: 5.44 µM
[1]
  viability, T/C: 87.1%
[2]
  viability, T/C: 93.1%
[3]
  viability, T/C: 100%
[4]
  viability, T/C: 98.4%
[5]
  viability, T/C: 92.6%
[6]
  viability, T/C: 0.23%
[7]
  viability, T/C: 100%
[8]
  viability, T/C: 95.6%
[9]
  viability, T/C: 81.3%
[10]
  viability, T/C: 90.6%
[11]
  viability, T/C: 99.7%
[12]
  viability, T/C: 0.23%
[13]
  viability, T/C: 111%
[14]
  viability, T/C: 106%
[15]
  viability, T/C: 79.8%
[16]
  viability, T/C: 93.4%
[17]
  viability, T/C: 98.2%
[18]
  viability, T/C: 5.12%
[19]
  viability, T/C: 119%
[20]
  viability, T/C: 103%
[21]
  viability, T/C: 84%
[22]
  viability, T/C: 91.1%
[23]
  viability, T/C: 99%
[24]
  viability, T/C: 0.31%
[25]
  viability, T/C: 85.9%
[26]
  viability, T/C: 102%
[27]
  viability, T/C: 92%
[28]
  viability, T/C: 94.7%
[29]
  viability, T/C: 93%
[30]
  viability, T/C: 1.89%

## CCN1C(C(=O)NC23CCC(C(=O)O)(CC2)CC3)C(c2cccc(Cl)c2F)C2(C(=O)Nc3cc(Cl)ccc32)C12CCCCC2 (stereo not given) + CNC(C)C(=O)NC1CN(S(=O)(=O)c2cccc(S(=O)(=O)N3CCC4CCC(C(=O)NC(c5ccccc5)c5ccccc5)N4C(=O)C(NC(=O)C(C)NC)C3)c2)CCC2CCC(C(=O)NC(c3ccccc3)c3ccccc3)N2C1=O
Second compound 0.01 µM
  IC50: > 3 µM
Second compound 0.0316 µM
  IC50: > 3 µM
Second compound 0.1 µM
  IC50: > 3 µM
Second compound 0.316 µM
  IC50: > 3 µM
Second compound 1 µM
  IC50: > 3 µM
[31]
  viability, T/C: 107%
[32]
  viability, T/C: 112%
[33]
  viability, T/C: 90.5%
[34]
  viability, T/C: 91.9%
[35]
  viability, T/C: 112%
[36]
  viability, T/C: 116%
[37]
  viability, T/C: 119%
[38]
  viability, T/C: 114%
[39]
  viability, T/C: 100%
[40]
  viability, T/C: 114%
[41]
  viability, T/C: 97.1%
[42]
  viability, T/C: 97%
[43]
  viability, T/C: 91.2%
[44]
  viability, T/C: 116%
[45]
  viability, T/C: 97.2%
[46]
  viability, T/C: 101%
[47]
  viability, T/C: 114%
[48]
  viability, T/C: 118%
[49]
  viability, T/C: 94.9%
[50]
  viability, T/C: 106%
[51]
  viability, T/C: 106%
[52]
  viability, T/C: 98.6%
[53]
  viability, T/C: 96.1%
[54]
  viability, T/C: 119%
[55]
  viability, T/C: 83.3%
[56]
  viability, T/C: 108%
[57]
  viability, T/C: 115%
[58]
  viability, T/C: 103%
[59]
  viability, T/C: 105%
[60]
  viability, T/C: 108%

## Cc1nc(N2CCC3(CC2)COC(C)C3N)c(CO)nc1Sc1ccnc(N)c1Cl (stereo not given) + CNC(C)C(=O)NC1CN(S(=O)(=O)c2cccc(S(=O)(=O)N3CCC4CCC(C(=O)NC(c5ccccc5)c5ccccc5)N4C(=O)C(NC(=O)C(C)NC)C3)c2)CCC2CCC(C(=O)NC(c3ccccc3)c3ccccc3)N2C1=O
Second compound 0.01 µM
  IC50: 0.613 µM
Second compound 0.0316 µM
  IC50: 0.888 µM
Second compound 0.1 µM
  IC50: 0.271 µM
Second compound 0.316 µM
  IC50: > 3 µM
Second compound 1 µM
  IC50: 1.48 µM
[31]
  viability, T/C: 86.7%
[32]
  viability, T/C: 67.7%
[33]
  viability, T/C: 64.6%
[34]
  viability, T/C: 49%
[35]
  viability, T/C: 48.9%
[36]
  viability, T/C: 46.2%
[37]
  viability, T/C: 83.6%
[38]
  viability, T/C: 72%
[39]
  viability, T/C: 66.7%
[40]
  viability, T/C: 46%
[41]
  viability, T/C: 50.4%
[42]
  viability, T/C: 52.6%
[43]
  viability, T/C: 84.3%
[44]
  viability, T/C: 68.1%
[45]
  viability, T/C: 58.9%
[46]
  viability, T/C: 43%
[47]
  viability, T/C: 52.1%
[48]
  viability, T/C: 46.9%
[49]
  viability, T/C: 93.3%
[50]
  viability, T/C: 65.3%
[51]
  viability, T/C: 64.4%
[52]
  viability, T/C: 51.9%
[53]
  viability, T/C: 53.9%
[54]
  viability, T/C: 51.6%
[55]
  viability, T/C: 76.7%
[56]
  viability, T/C: 59.3%
[57]
  viability, T/C: 62.2%
[58]
  viability, T/C: 50.9%
[59]
  viability, T/C: 57.2%
[60]
  viability, T/C: 45%
